Data from patent US12122763B2, “Substituted piperidines for androgen receptor degradation” (UBIX THERAPEUTICS, INC., priority 2020, dated 2024).

Molecular target: T1, Androgen Receptor (AR) protein (Homo sapiens, UniProt P10275, T878A)
T1 construct: endogenous in cells; host or cells: LNCaP
Test: Androgen Receptor (AR) protein degradation assay in LNCaP cells, western blotting
Type: cell-based
Conditions: 20 h; for inhibition at 0.01 µM: 0.01 μM compound; for inhibition at 0.1 µM: 0.1 μM compound; for inhibition at 1 µM: 1 μM compound
Procedure: Experimental Example 1: Androgen Receptor (AR) Protein Degradation Assay
After treating LNCaP cells with the synthesized Example compound, the amount of AR protein present in the cells was measured. The amount of AR protein was measured using western blotting detection method. The protocol of the experiment using LNCaP cells was as follows:
[Culture] LNCaP cells were resuspended in RPMI1640 MEDIUM (Hyclone, SH30027.01), 10% FBS (Hyclone, SV30207.02), and 1% Penicillin-streptomycin (Welgene, LS 202-02) media to be 3×10^5/mL. Then, 1 mL each was seeded in a 12-well plate. After that, they were cultured for 3 days.
[Compound treatment] 10 μl of 0.1, 1, 10, and 100 μM compound, which is the final compound treatment concentration and a 100× stock of 0.001, 0.01, 0.1, and 1 μM, was added in 1 ml media of each well, and 20 hours later, the cells were harvested.
[Cell Lysis] Cell pellets were suspended using 1% SDS lysis buffer (50 mM Tris, 1 mM EDTA, 1% SDS, pH 8.0, 0.5 mM PMSF, 1× Protease/Phosphatase inhibitor Cocktail (Cell Signaling Technology, 5872s)), and sonication (70% AMP, 5 cycles (30 sec ON/59 sec OFF)) was performed. Cell lysate was obtained after centrifugation at 4° C., 15000 g, for 20 minutes.
[Protein quantification] A BCA protein assay (SMART™ BCA Protein Assay Kit, iNtRON Biotechnology, 21071) was performed using a 96-well microplate. After adding 5 μl cell lysate and 5 μl 1% SDS lysis buffer to each well of the 96-well plate, 200 μl of BCA reagent (Reagent A:Reagent B=50:1) was additionally added. After incubation at 37° C. for 30 minutes, it was cooled at room temperature for 10 minutes. Then, absorbance was measured at a wavelength of 562 nm. The unknown protein concentration was measured using a BSA standard curve (0, 0.125, 0.25, 0.5, 1, 2 mg/ml). Western blotting samples were prepared by mixing cell lysate, 1% SDS lysis buffer, 4× Bolt™ LDS Sample buffer (Invitrogen, B0008), and 10× Bolt™ Sample Reducing Agent (Invitrogen, B0009) and boiling the mixture at 70° C. for 10 minutes.
[Electrophoresis] After loading 8 μg of protein sample into each well of Bolt™ 4 to 12%, Bis-Tris, 1.0 mm Mini Protein Gel, 17-well (Invitrogen, NW04127BOX), Bolt™ MES SDS Running Buffer (Invitrogen, B0002) was used for electrophoresis at 200V (constant V) for 50 minutes.
[Transfer] Using electrophoresis gel and Trans-Blot® Turbo™ Transfer Starter System (Bio-RAD, #17001918, Mini Nitrocellulose), transfer proceeded for 15 minutes under the condition of 1.3A (Constant A) and 25V (Limit V). To confirm protein transfer, 15 ml of Ponceau S solution (Sigma, P7170-1L) was used for staining for 1 minute, followed by washing to confirm the degree of transfer.
[Blocking] Membranes for AR detection were blocked for 45 minutes with 5% skim milk/0.2% TBST (Skim milk: BD, 232100/20× TBS: Biosesang, TR2008-100-00/10% Tween 20 Solution: Bio-RAD, #161-0781). Membranes for GAPDH and β-actin detection were blocked for 45 minutes with Odyssey blocking buffer: 0.1% TBST=1:1 (Odyssey blocking buffer: Li-COR Biosciences, 927-50000).
[Antibody and detection] The primary AR antibody (Androgen Receptor: CST, 5153s) was mixed with 5% skim milk/0.2% TBST at a ratio of 1:1000 and attached for 3 hours at room temperature. Primary β-actin antibody (GeneTex, 629630) was mixed with 5% BSA/0.2% TBST at a ratio of 1:2000 and attached for 3 hours at room temperature. Primary GAPDH antibody (GeneTex, 100118) was mixed with 5% BSA/0.2% TBST at a ratio of 1:2000 and attached for 3 hours at room temperature. After 3 hours, it was washed 3 times every 5 minutes using TBST (0.2% Tween 20). Anti-rabbit IgG, HRP-linked Antibody (CST, 7074s), secondary antibody for the AR antibody was mixed with 5% skim milk/0.2% TBST at a ratio of 1:5000 and attached for 45 minutes at room temperature. […]

T1 sequence (P10275 whole entry T878A): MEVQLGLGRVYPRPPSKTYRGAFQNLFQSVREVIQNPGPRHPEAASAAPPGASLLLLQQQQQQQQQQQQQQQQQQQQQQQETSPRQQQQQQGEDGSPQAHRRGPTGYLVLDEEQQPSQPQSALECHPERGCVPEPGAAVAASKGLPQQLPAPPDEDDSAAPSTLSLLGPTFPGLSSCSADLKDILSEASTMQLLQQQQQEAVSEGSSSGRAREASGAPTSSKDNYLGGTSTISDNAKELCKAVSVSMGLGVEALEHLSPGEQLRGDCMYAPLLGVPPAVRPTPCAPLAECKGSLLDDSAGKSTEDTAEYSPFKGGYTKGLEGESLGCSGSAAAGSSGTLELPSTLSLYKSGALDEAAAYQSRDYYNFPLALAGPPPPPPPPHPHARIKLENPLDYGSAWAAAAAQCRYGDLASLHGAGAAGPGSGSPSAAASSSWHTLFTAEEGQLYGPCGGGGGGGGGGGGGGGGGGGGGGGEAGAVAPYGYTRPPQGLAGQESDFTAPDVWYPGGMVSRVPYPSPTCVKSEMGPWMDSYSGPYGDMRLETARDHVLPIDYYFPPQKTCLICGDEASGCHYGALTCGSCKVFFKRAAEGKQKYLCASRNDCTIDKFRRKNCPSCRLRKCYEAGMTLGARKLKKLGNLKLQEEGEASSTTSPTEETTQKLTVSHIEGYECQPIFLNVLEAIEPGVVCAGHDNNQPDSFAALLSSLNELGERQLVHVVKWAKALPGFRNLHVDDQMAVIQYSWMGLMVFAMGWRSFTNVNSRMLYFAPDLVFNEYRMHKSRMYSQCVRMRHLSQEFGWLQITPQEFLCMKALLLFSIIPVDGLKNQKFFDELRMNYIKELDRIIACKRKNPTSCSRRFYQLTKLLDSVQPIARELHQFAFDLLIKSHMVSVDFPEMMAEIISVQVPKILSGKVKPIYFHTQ
T1 sequence (Q96SW2 whole entry partner): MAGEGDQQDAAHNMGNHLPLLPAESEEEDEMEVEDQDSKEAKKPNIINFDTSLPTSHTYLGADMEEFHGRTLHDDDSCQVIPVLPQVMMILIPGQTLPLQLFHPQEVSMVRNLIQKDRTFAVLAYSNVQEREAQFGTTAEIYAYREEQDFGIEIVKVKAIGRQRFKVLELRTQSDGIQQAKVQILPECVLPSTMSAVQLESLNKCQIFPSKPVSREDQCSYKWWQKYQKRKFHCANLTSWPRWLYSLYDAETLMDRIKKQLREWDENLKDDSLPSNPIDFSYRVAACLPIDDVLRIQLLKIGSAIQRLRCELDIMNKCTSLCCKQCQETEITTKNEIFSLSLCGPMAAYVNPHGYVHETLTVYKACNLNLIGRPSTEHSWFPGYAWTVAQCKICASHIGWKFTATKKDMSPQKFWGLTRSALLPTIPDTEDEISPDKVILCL

Structure (SMILES) | inhibition at 0.01 µM | inhibition at 0.1 µM | inhibition at 1 µM
C[C@@H]1CN(CC2CCN(c3ccc(NC(=O)C4CCN(c5ccc(C#N)c(C(F)(F)F)c5)CC4)nc3)CC2)CCN1CC1CCN(c2ccc3c(c2)C(=O)N(C2CCC(=O)NC2=O)C3=O)CC1 (stereo partly drawn) [Example 25, 1-(4-cyano-3-(trifluoromethyl)phenyl)-N-(5-(4-(((3R)-4-((1-(2-(2,6-dioxopiperidin-3-yl)-1,3-dioxoisoindolin-5-yl)piperidin-4-yl)methyl)-3-methylpiperazin-1-yl)methyl)piperidin-1-yl)pyridin-2-yl)piperidine-4-carboxamide] | 73% | 98% | 98%
C[C@@H]1CN(CC2CCN(c3ccc(NC(=O)C4CCN(c5ccc(C#N)c(C(F)(F)F)c5)CC4)nc3)CC2)CCN1CC1CN(c2ccc3c(c2)C(=O)N(C2CCC(=O)NC2=O)C3=O)C1 (stereo partly drawn) [Example 26, 1-(4-cyano-3-(trifluoromethyl)phenyl)-N-(5-(4-(((3R)-4-((1-(2-(2,6-dioxopiperidin-3-yl)-1,3-dioxoisoindolin-5-yl)azetidin-3-yl)methyl)-3-methylpiperazin-1-yl)methyl)piperidin-1-yl)pyridin-2-yl)piperidine-4-carboxamide] | 75% | 98% | 98%
N#Cc1ccc(N2CCC(C(=O)Nc3ccc(N4CC(CN5CCN(CC6CCN(c7ccc8c(c7)C(=O)N(C7CCC(=O)NC7=O)C8=O)CC6)CC5)C4)cn3)CC2)cc1C(F)(F)F (stereo not drawn) [Example 27, 1-(4-cyano-3-(trifluoromethyl)phenyl)-N-(5-(3-((4-((1-(2-(2,6-dioxopiperidin-3-yl)-1,3-dioxoisoindolin-5-yl)piperidin-4-yl)methyl)piperazin-1-yl)methyl)azetidin-1-yl)pyridin-2-yl)piperidine-4-carboxamide] | 78% | 97% | 97%
N#Cc1ccc(N2CCC(C(=O)Nc3ccc(N4CC(CN5CCN(C[C@H]6CCN(c7ccc8c(c7)C(=O)N(C7CCC(=O)NC7=O)C8=O)C6)CC5)C4)cn3)CC2)cc1C(F)(F)F (stereo partly drawn) [Example 28, 1-(4-cyano-3-(trifluoromethyl)phenyl)-N-(5-(3-((4-(((3R)-1-(2-(2,6-dioxopiperidin-3-yl)-1,3-dioxoisoindolin-5-yl)pyrrolidin-3-yl)methyl)piperazin-1-yl)methyl)azetidin-1-yl)pyridin-2-yl)piperidine-4-carboxamide] | 82% | 96% | 95%
N#Cc1ccc(N2CCC(C(=O)Nc3ccc(N4CC(CN5CCN(C[C@@H]6CCN(c7ccc8c(c7)C(=O)N(C7CCC(=O)NC7=O)C8=O)C6)CC5)C4)cn3)CC2)cc1C(F)(F)F (stereo partly drawn) [Example 29, 1-(4-cyano-3-(trifluoromethyl)phenyl)-N-(5-(3-((4-(((3S)-1-(2-(2,6-dioxopiperidin-3-yl)-1,3-dioxoisoindolin-5-yl)pyrrolidin-3-yl)methyl)piperazin-1-yl)methyl)azetidin-1-yl)pyridin-2-yl)piperidine-4-carboxamide] | 80% | 97% | 97%
N#Cc1ccc(N2CCC(C(=O)Nc3ccc(N4CC(CN5CCN(CC6CN(c7ccc8c(c7)C(=O)N(C7CCC(=O)NC7=O)C8=O)C6)CC5)C4)cn3)CC2)cc1C(F)(F)F (stereo not drawn) [Example 30, 1-(4-cyano-3-(trifluoromethyl)phenyl)-N-(5-(3-((4-((1-(2-(2,6-dioxopiperidin-3-yl)-1,3-dioxoisoindolin-5-yl)azetidin-3-yl)methyl)piperazin-1-yl)methyl)azetidin-1-yl)pyridin-2-yl)piperidine-4-carboxamide] | 78% | 99% | 97%
